For one assay, the system named is saT1R3/R3. Conditions: cells transfected with saT1R3 alone (double amount). An excerpt:
(§1) Previous studies have reported that heterodimeric coupling of saT1R complexes may not be the only mode of functional activation since these subunits, especially T1R3, can also couple as homodimers.
(§2) Figure 8 Comparisons of proline Log-dose response curves of activation in heterologous transfections of hetero- and homo-dimeric saT1R combinations of saT1R1/R3 (black dots), saT1R2a/R3 (white dots), saT1R2b/3 (black triangles), saT1R1/R1 (white triangles) and saT1R3/R3 (black squares). Response is measured as RLU mean ± SEM of four independent determinations normalized to the mean response of the same transfections stimulated with reduced assay medium (BME + 1% FBS), expressed as percentage relative to basal levels (BL).
(§3) saT1Rs (saT1R1, saT1R2a, saT1R2b saT1R3) and saGαi1-2 genes were RT-PCR amplified using 5’ and 3’ flanking primers carrying HindIII and XhoI restriction sites, respectively. Gel-purified fragments were cloned into pGEM-T Easy vectors, re-sequenced, digested and subcloned into pcDNA™3 (Invitrogen, Carlsbad, CA, USA). Effective saT1R cloning into pcDNA™3 was further verified by HindIII/XhoI digestion. […]

For another assay, the system named is saT1R1/R1. Conditions: cells transfected with saT1R1 alone (double amount).
Source text: as §1, §2, §3

Structures are written as SMILES.

With `O=C(O)[C@@H]1CCCN1` [Pro, Proline], the “response to Pro stimulation” value in the assay on saT1R3/R3 and in the assay with saT1R1/R1 was “did not respond” each time.

The values above are taken from publication PMC7594079, “Insights into the Function and Evolution of Taste 1 Receptor Gene Family in the Carnivore Fish Gilthead Seabream (Sparus aurata)” (International Journal of Molecular Sciences, 2020).
